This is an account of results in patent US8420335B2, “Inhibition of GASC1” (Kobenhavns Universitet, priority 2006, dated 2013).

“Also recorded” adds a separate entry of the source. Like-named read-outs stand apart in the source and are kept apart here.

The target in test [1] is T1, GASC1 (Homo sapiens, UniProt Q9H3R0).
T1 construct: Full-length amino-terminally hexahistidine-tagged human GASC1 baculovirus transfer vector; made in house; host or cells: baculovirus-infected insect cells (pAcHLT-A transfer vector, Bakpak6)
T1 sequence (Q9H3R0 1-1056): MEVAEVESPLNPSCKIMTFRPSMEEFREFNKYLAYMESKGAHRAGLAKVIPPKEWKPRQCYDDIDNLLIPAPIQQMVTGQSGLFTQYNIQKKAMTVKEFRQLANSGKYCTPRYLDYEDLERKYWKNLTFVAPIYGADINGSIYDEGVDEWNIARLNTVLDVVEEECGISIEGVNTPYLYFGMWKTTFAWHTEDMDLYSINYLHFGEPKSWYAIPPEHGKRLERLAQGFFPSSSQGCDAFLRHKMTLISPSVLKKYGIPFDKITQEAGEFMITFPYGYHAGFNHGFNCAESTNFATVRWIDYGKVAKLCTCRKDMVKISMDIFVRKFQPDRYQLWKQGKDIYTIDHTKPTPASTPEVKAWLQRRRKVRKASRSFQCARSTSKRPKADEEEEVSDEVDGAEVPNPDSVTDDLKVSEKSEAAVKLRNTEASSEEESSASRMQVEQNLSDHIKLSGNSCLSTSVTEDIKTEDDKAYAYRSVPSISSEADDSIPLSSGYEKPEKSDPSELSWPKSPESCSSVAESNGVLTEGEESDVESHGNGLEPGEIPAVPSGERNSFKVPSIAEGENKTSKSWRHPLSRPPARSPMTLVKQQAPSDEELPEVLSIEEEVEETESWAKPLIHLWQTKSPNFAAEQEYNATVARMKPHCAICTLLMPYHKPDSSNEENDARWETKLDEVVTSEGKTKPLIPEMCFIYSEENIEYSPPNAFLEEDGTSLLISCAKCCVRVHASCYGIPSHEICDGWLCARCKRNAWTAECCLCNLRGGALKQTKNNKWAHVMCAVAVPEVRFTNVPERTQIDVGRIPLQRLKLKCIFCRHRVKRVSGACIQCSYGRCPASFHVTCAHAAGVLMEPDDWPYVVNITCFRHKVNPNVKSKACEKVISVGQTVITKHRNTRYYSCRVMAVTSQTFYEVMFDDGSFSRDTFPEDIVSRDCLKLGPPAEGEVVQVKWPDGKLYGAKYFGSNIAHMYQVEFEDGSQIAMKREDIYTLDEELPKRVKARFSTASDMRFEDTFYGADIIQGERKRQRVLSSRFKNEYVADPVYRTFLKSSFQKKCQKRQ
The test can be described thus: Demethylation assay: recombinant His-GASC1 with bulk histones or H3K9me3 peptide, western blotting. The test is classed as biochemical. In general terms: Immunoblotting shows a protein as a band on a membrane.

Test [2] relates to WI38. The test can be described thus: Quercetin treatment of WI38 cells: H3K9me3, senescent-like phenotype, growth. The test is classed as cell-based. The conditions noted are these: WI38, low/moderate GASC1 level. The source says: (§1) The biological effects of quercetin have previously been attributed to inhibition of topoisomerase I^43, modulation of protein and lipid kinase signalling pathways^44 and scavenging of reactive oxygen species^45, In light of the present findings it is tempting to speculate that the anti-cancer effect of quercetin might at least partially by explained by its inhibitory effect on GASC1 and other members of the JMJD2 subfamily.

In test [3] the test system is KYSE-450 cells. Put plainly: Quercetin treatment of KYSE-450 cells: H3K9me3, senescent-like phenotype, growth. The test is classed as cell-based, human. The following applies: KYSE-450, low/moderate GASC1 level.
Source text: as §1

Test [4] concerns KYSE-150 cells. The test can be described thus: Overnight quercetin treatment of KYSE-150 cells: H3K9me3 by immunofluorescence and western blotting, growth, senescence. The test is classed as cell-based, human.
Test [5] deals with U2OS. The test can be described thus: Quercetin treatment of U2OS cells: H3K9me3, senescent-like phenotype, growth. The test is classed as cell-based, human. The conditions noted are these: low/moderate GASC1 level.
Setting [6] is: His-GASC1, bulk histones, co-factors FeSO4 and α-ketoglutarate, 30 min at 37° C., western blotting.

`[Cl-].[Cl-].[Co+2]` [CoCl2]: in test [1], the “inhibition of GASC1-mediated demethylation of H3K9me3” value (“inhibition … of H3K9me3” for short) is recorded as “inhibit GASC1 demethylation activity; also recorded: able to inhibit the demethylation reaction effectively”.

On to `O=C(O)CN(CCN(CC(=O)O)CC(=O)O)CC(=O)O` [EDTA], for which the “GASC1 demethylation of H3K9me3 in the presence of EDTA” value in test [1] (EDTA (chelating iron), 30 min at 37° C., western blotting) was “significantly reduced”.

With `O=C(O)CNC(=O)C(=O)O` [N-oxalylglycine], in test [1] (setting [6]), the “inhibition … of H3K9me3” value is given as “able to inhibit the demethylation reaction effectively”.

On to `O=S(=O)([O-])[O-].[Ni+2]` [NiSO4], for which the “inhibition … of H3K9me3” value in test [1] (setting [6]) is listed as “inhibit GASC1 demethylation activity; also recorded: able to inhibit the demethylation reaction effectively”.

With `O=c1c(O)c(-c2ccc(O)c(O)c2)oc2cc(O)cc(O)c12` [quercetin], the “inhibition … of H3K9me3” value in test [1] (setting [6]) is reported as “able to effectively inhibit GASC1-mediated demethylation of H3K9me3 in vitro”; in test [1] (His-GASC1, bulk histones, co-factors FeSO4 and α-ketoglutarate, 30 min at 37° C., western blotting, listed as quercetine), “able to inhibit the demethylation reaction effectively”. Moreover, the “H3K9me3 increase, senescent-like phenotype and growth inhibition compared with KYSE-150” value in test [2] is “did not display the same increase in H3K9me3 nor the same senescent-like phenotype and growth inhibition”; in test [3] it was “did not display the same increase in H3K9me3 nor the same senescent-like phenotype and growth inhibition”; in test [5] it was “did not display the same increase in H3K9me3 nor the same senescent-like phenotype and growth inhibition”. Moreover, the growth rate entry in test [4] (data not shown) is reported as “marked decrease of growth rate”. Also, the “phenotype (cell morphology, SAHFs, β-gal staining)” value in test [4] (data not shown) is on record as “senescent-like phenotype”. In addition, the H3K9 trimethylation result in test [4] (immunofluorescence and western blotting) is on record as “staggering increase in H3K9 trimethylation”.
